System: cell lines where RAD21 expression is inhibited using siRNA
Experiment: Clonogenic survival assay
Assay type: cell-based
Procedure: Clonogenic survival assays measure survival of cells after treatment with cytotoxic agents. In this particular assay the aim is to investigate the effect of downregulating RAD21 expression on sensitivity to therapeutically relevant DNA damaging agent.
Cells were transfected with siRNA against RAD21, siRAD21—272, to reduce expression of RAD21. […] Cells were then trypsinized and replated at 200 cells per plate. Cells were grown for 11-12 days, fixed and stained with crystal violet to detect colonies. Colonies were then counted.
The data were fitted to a curve and the DRF values calculated from the fitted curves of siRAD21 and Lipofectamine.

bleomycin
sensitivity to drug in clonogenic survival (cell lines where RAD21 expression is inhibited using siRNA, FIGS. 9 and 10): increased sensitivity
DRF20 (factor by which the dose can be reduced in the presence of decreased RAD21 expression) (cells transfected with siRAD21—272, drug exposure 2 hours, two days after transfection, colonies counted after 11-12 days, from fitted curves of siRAD21 and Lipofectamine): 1.15

From patent US20050064442A1, “Methods for identifying risk of breast cancer and treatments thereof” (priority 2002, published 2005)
